Source: publication PMC10066365, “Nemacol is a small molecule inhibitor of C. elegans vesicular acetylcholine transporter with anthelmintic potential” (Nature Communications, 2023)
“And” between values parts separate entries of the source, which are not always exact repeats. Equal values may be shown once. Read-outs that look alike come from different tables or passages of the source.

Experiments:
Pristionchus pacificus = Pristionchus pacificus motor disruption dose-response on solid media, 1 h; settings: for mean % any phene (coiled, jerky-Unc or paralyzed): Pristionchus pacificus young adults, mean of three biological replicates; for rep 1 atypical locomotion / rep 1 coiled / rep 1 no phene / rep 1 paralyzed: count of 20 animals per trial, one hour
[1] = test system: Dirofilaria immitis L3/L4; test: Dirofilaria immitis L3/L4 motility assay (DiroImager, 72 h)
rat VAChT = target: T1, rat VAChT (Rattus norvegicus, UniProt Q62666); test: [3H]Vesamicol competitive radioligand binding, PC12 cells expressing ratVAChT; settings: for specific binding in % of total binding (corrected by nonspecific binding NB), mean: rVAChT-PC12, 21°C, 1% DMSO
T1 construct: expressed in transfected cells; host or cells: rat PC12 (PC12 A123.7) cells, stably transfected; shared by Dr. Ali Roghani (Texas Tech University)
T1 sequence (Q62666 1-530): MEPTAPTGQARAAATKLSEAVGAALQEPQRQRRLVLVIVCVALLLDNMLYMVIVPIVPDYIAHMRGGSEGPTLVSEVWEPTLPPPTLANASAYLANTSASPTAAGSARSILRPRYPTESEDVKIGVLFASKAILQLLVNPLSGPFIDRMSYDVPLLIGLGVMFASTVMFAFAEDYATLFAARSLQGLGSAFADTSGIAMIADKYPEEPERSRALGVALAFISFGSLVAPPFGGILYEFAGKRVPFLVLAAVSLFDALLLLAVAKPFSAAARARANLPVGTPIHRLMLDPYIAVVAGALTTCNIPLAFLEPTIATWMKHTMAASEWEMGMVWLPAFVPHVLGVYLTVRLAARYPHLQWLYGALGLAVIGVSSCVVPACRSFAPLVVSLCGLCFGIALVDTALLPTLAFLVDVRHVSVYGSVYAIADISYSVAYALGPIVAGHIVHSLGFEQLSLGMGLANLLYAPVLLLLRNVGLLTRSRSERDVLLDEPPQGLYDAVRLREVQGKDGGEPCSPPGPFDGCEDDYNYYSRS

[2] = test system: Dirofilaria immitis microfilariae; test: Dirofilaria immitis microfilariae immobility assay (DiroImager, 72 h)
Summary of the method: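 Motility read after 72 h drug exposure with an image-based high-throughput plate imager, 1% DMSO medium serving as negative control. Missouri-isolate microfilariae, roughly 250 per well, freshly purified and cultured in supplemented RPMI 1640.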

[3] = test system: C. elegans unc-17 mutants; settings: unc-17 (e245), 60 min
Method: Significance was calculated using Fisher’s method (one-sided comparisons; see 'Methods'). […] Worms were incubated on the plates for 60 min.
Locomotor phenotype analyses were done in 24-well plates with 1 mL of MYOB substrate (27.5 g Trizma HCl, 12 g Trizma Base, 230 g bacto tryptone, 10 g NaCl, 0.4 g cholesterol (95%)) seeded with 25 µL of OP50 Escherichia coli on each well. Each compound was added to the MYOB substrate before pouring to achieve the desired final concentrations of 30 µM or 60 µM after diffusion through the media. Synchronized young adult worms are transferred into each well using a platinum wire pick. A Leica MZ75 stereomicroscope was used to visualize the movement of worms on the solid substrate. The specific dominant locomotor phenotype (i.e. ‘Punc’, ‘paralyzed’, ‘coiler’ or ‘wild-type locomotion’) was scored after the touch on the head with a platinum wire over a ~3–5 s of observation. […] Coiled animals were not scored as paralyzed despite sometimes not responding to light touch.

[4] = 15 µM, adult worms, average of 3 biological repeats
[5] = 30 µM, adult worms, average of 3 biological repeats
[6] = 60 µM, adult worms, average of 3 biological repeats

In the case of `O=[N+]([O-])c1ccc(N2CCN(CC3CCCCC3)CC2)cc1` [Nemacol-1], the “mean % any phene (coiled, jerky-Unc or paralyzed)” value (from here on “mean % any phene”) (Pristionchus pacificus; conc 3.75, observed at one hour) is reported as 0%, the “mean % any phene” value (Pristionchus pacificus; conc 15, observed at one hour) is reported as 56.6667% and the “mean % any phene” value (Pristionchus pacificus; conc 60, observed at one hour) is reported as 100%. For the same compound, the EC50 (Pristionchus pacificus; Pristionchus pacificus, 1 h, read-out: P. pacificus motor disruption EC50) was 14100 ± 2900 nM, the “rep 1 atypical locomotion” value (Pristionchus pacificus; conc 3.75) was 4 and the “rep 1 coiled” value (Pristionchus pacificus; conc 3.75) was 1. The “rep 1 no phene” value (Pristionchus pacificus; conc 3.75) was 15, the “rep 1 paralyzed” value (Pristionchus pacificus; conc 3.75) was 0 and the “rep 1 atypical locomotion” value (Pristionchus pacificus; conc 15) was 13. For the same compound, the “rep 1 coiled” value (Pristionchus pacificus; conc 15) was 1, the “rep 1 no phene” value (Pristionchus pacificus; conc 15) was 6 and the “rep 1 paralyzed” value (Pristionchus pacificus; conc 15) was 0. For the same compound, the “rep 1 atypical locomotion” value (Pristionchus pacificus; conc 60) was 0, the “rep 1 coiled” value (Pristionchus pacificus; conc 60) was 2 and the “rep 1 no phene” value (Pristionchus pacificus; conc 60) was 0. The “rep 1 paralyzed” value (Pristionchus pacificus; conc 60) was 18, the “activity against D. immitis (EC50)” value [1] was “low micromolar activity” and the “% effect (motility), DIROIM L4” value ([1]; 0.016 µM) was 0%. The “% effect (motility), DIROIM L4” value ([1]; 0.08 µM) was 0%, the “% effect (motility), DIROIM L4” value ([1]; 0.4 µM) was 0% and the “% effect (motility), DIROIM L4” value ([1]; 2 µM) was 5%. The “% effect (motility), DIROIM L4” value ([1]; 10 µM) was 100%, the “% effect (motility), DIROIM L4” value ([1]; 50 µM) was 100% and the “activity ratio, mammalian VAChT Ki to C. elegans in vivo EC50” value (rat VAChT) was 0.11. The Ki (rat VAChT; Ki, each of two biological replicates) was 875 nM and 661 nM, the “specific binding in % of total binding (corrected by nonspecific binding NB), mean” value (shortened to “specific binding in % of total binding”) (rat VAChT; competitor 1.00E-04 M, experiment 2019-11-21, 2.20E-09 M 3H-vesamicol, 90 min) was 2.84% and the “specific binding in % of total binding” value (rat VAChT; competitor 1.00E-05 M, experiment 2019-10-30, 2.92E-09 M 3H-vesamicol, 120 min) was 34%. For the same compound, the “specific binding in % of total binding” value (rat VAChT; competitor 1.00E-05 M, experiment 2019-11-21, 2.20E-09 M 3H-vesamicol, 90 min) was 10%, the “specific binding in % of total binding” value (rat VAChT; competitor 1.00E-06 M, experiment 2019-10-30, 2.92E-09 M 3H-vesamicol, 120 min) was 51% and the “specific binding in % of total binding” value (rat VAChT; competitor 1.00E-06 M, experiment 2019-11-21, 2.20E-09 M 3H-vesamicol, 90 min) was 52%. For the same compound, the “specific binding in % of total binding” value (rat VAChT; competitor 1.00E-07 M, experiment 2019-10-30, 2.92E-09 M 3H-vesamicol, 120 min) was 86%, the “specific binding in % of total binding” value (rat VAChT; competitor 1.00E-07 M, experiment 2019-11-21, 2.20E-09 M 3H-vesamicol, 90 min) was 82% and the “specific binding in % of total binding” value (rat VAChT; competitor 1.00E-08 M, experiment 2019-10-30, 2.92E-09 M 3H-vesamicol, 120 min) was 94%. For the same compound, the “specific binding in % of total binding” value (rat VAChT; competitor 1.00E-08 M, experiment 2019-11-21, 2.20E-09 M 3H-vesamicol, 90 min) was 90%, the “specific binding in % of total binding” value (rat VAChT; competitor 1.00E-09 M, experiment 2019-10-30, 2.92E-09 M 3H-vesamicol, 120 min) was 96% and the “specific binding in % of total binding” value (rat VAChT; competitor 1.00E-09 M, experiment 2019-11-21, 2.20E-09 M 3H-vesamicol, 90 min) was 88%. For the same compound, the “specific binding in % of total binding” value (rat VAChT; competitor 1.00E-10 M, experiment 2019-10-30, 2.92E-09 M 3H-vesamicol, 120 min) was 95%, the “specific binding in % of total binding” value (rat VAChT; competitor 1.00E-10 M, experiment 2019-11-21, 2.20E-09 M 3H-vesamicol, 90 min) was 92% and the “specific binding in % of total binding” value (rat VAChT; competitor 1.00E-11 M, experiment 2019-10-30, 2.92E-09 M 3H-vesamicol, 120 min) was 94%. The “rat VAChT Ki fold difference to vesamicol” value (rat VAChT; fold less affinity than vesamicol) was 37 fold, the Ki (rat VAChT; in vitro mammalian VAChT Ki) was 770 nM and the Ki (rat VAChT; ratVAChT Ki, [3H]Vesamicol displacement, mean) was 768 nM. For the same compound, the “% effect (motility), DIROIM MF” value ([2]; 0.016 µM) was 0%, the “% effect (motility), DIROIM MF” value ([2]; 0.08 µM) was 0% and the “% effect (motility), DIROIM MF” value ([2]; 0.4 µM) was 0%. The “% effect (motility), DIROIM MF” value ([2]; 2 µM) was 20%, the “% effect (motility), DIROIM MF” value ([2]; 10 µM) was 100% and the “% effect (motility), DIROIM MF” value ([2]; 50 µM) was 100%. For the same compound, the EC50 ([2]; Dirofilaria immitis, 72 h, read-out: Dirofilaria immitis filariae EC50) was 2200 nM, the “Fraction Coiled” value [3, 4] was 0.83 and the “Fraction Jerky-Unc” value [3, 4] was 0.17. For the same compound, the “Fraction No Phenotype” value [3, 4] was 0.00, the “Fraction Parayzed” value [3, 4] was 0.00 and the “Fraction Coiled” value [3, 5] was 0.78. The “Fraction Jerky-Unc” value [3, 5] was 0.13, the “Fraction No Phenotype” value [3, 5] was 0.00 and the “Fraction Parayzed” value [3, 5] was 0.09. For the same compound, the “Fraction Coiled” value [3, 6] was 0.80, the “Fraction Jerky-Unc” value [3, 6] was 0.0556 and the “Fraction No Phenotype” value [3, 6] was 0.00. For the same compound, the “Fraction Parayzed” value [3, 6] was 0.15, the “Fraction Coiled, Averages of 3 biological repeats” value ([3]; 15 µM) was 0.78 and the “Fraction Jerky-Unc, Averages of 3 biological repeats” value ([3]; 15 µM) was 0.19. The “Fraction No Phenotype, Averages of 3 biological repeats” value ([3]; 15 µM) was 0.00, the “Fraction Parayzed, Averages of 3 biological repeats” value ([3]; 15 µM) was 0.037 and the “C1 (loose coil) worm count” value ([3]; 15 µM, single Bio Rep) was 4 and 2 and 3. For the same compound, the “C2 (tight coil) worm count” value ([3]; 15 µM, single Bio Rep) was 11 and 12 and 10, the “Fraction Coiled” value ([3]; 15 µM, single Bio Rep) was 0.72 and 0.83 and 0.78 and the “Fraction Jerky-Unc” value ([3]; 15 µM, single Bio Rep) was 0.1667 and 0.2222. The “Fraction No Phenotype” value ([3]; 15 µM, single Bio Rep) was 0.00, the “J (jerky-unc) worm count” value ([3]; 15 µM, single Bio Rep) was 3 and 4 and the “NP (no phene) worm count” value ([3]; 15 µM, single Bio Rep) was 0. For the same compound, the “Fraction Coiled, Averages of 3 biological repeats” value ([3]; 30 µM) was 0.87, the “Fraction Jerky-Unc, Averages of 3 biological repeats” value ([3]; 30 µM) was 0.0741 and the “Fraction No Phenotype, Averages of 3 biological repeats” value ([3]; 30 µM) was 0.00. For the same compound, the “Fraction Parayzed, Averages of 3 biological repeats” value ([3]; 30 µM) was 0.0556, the “C1 (loose coil) worm count” value ([3]; 30 µM, single Bio Rep) was 2 and 1 and the “C2 (tight coil) worm count” value ([3]; 30 µM, single Bio Rep) was 14 and 15 and 13. For the same compound, the “Fraction Coiled” value ([3]; 30 µM, single Bio Rep) was 0.83 and 0.89, the “Fraction No Phenotype” value ([3]; 30 µM, single Bio Rep) was 0.00 and the “NP (no phene) worm count” value ([3]; 30 µM, single Bio Rep) was 0. For the same compound, the “Fraction Coiled, Averages of 3 biological repeats” value ([3]; 60 µM) was 0.76, the “Fraction Jerky-Unc, Averages of 3 biological repeats” value ([3]; 60 µM) was 0.037 and the “Fraction No Phenotype, Averages of 3 biological repeats” value ([3]; 60 µM) was 0.00. For the same compound, the “Fraction Parayzed, Averages of 3 biological repeats” value ([3]; 60 µM) was 0.20, the “C1 (loose coil) worm count” value ([3]; 60 µM, single Bio Rep) was 4 and 2 and the “C2 (tight coil) worm count” value ([3]; 60 µM, single Bio Rep) was 12 and 8 and 11.
